Measured values from patent US20230365553A1, “COMPOUNDS AND COMPOSITIONS FOR TREATING CONDITIONS ASSOCIATED WITH STING ACTIVITY” (IFM Due, Inc., priority 2020, published 2023).

target: T1, STING (Homo sapiens, UniProt Q86WV6, G230A/H232R/R293Q/R71H); assay: STING reporter assay: luciferase reporter activity in THP1-Dual KO-IFNAR2 cells stimulated with 2′3′cGAMP; assay type: cell-based; conditions: 15 μM 2′3′cGAMP, 24h, read-out: hSTING EC50
T1 construct: host or cells: THP1-Dual KO-IFNAR2 cells
Description: STING pathway activation by the compounds described herein was measured using THP 1-Dual™ cells (KO-IFNAR2).
THP1-Dual™ KO-IFNAR2 Cells (obtained from invivogen) were maintained in RPMI, 10% FCS, 5 ml P/S, 2 mM L-glut, 10 mM Hepes, and 1 mM sodium pyruvate. Compounds were spotted in empty 384 well tissue culture plates (Greiner 781182) by Echo for a final concentration of 0.0017-100 μM. Cells were plated into the TC plates at 40 μL per well, 2×10E6 cells/mL. For activation with STING ligand, 2′3′cGAMP (MW 718.38, obtained from Invivogen), was prepared in Optimem media.
The following solutions were prepared for each 1×384 plate: • Solution A: 2 mL Optimem with one of the following stimuli: • 60 μL of 10 mM 2′3′cGAMP→150 μM stock • Solution B: 2 mL Optimem with 60 μL Lipofectamine 2000→Incubate 5 min at RT
2 mL of solution A and 2 ml Solution B was mixed and incubated for 20 min at room temperature (RT). 20 μL of transfection solution (A+B) was added on top of the plated cells, with a final 2′3′cGAMP concentration of 15 μM. The plates were then centrifuged immediately at 340 g for 1 minute, after which they were incubated at 37° C., 5% CO2, >98% humidity for 24h. Luciferase reporter activity was then measured. EC50 values were calculated by using standard methods known in the art.
Luciferase reporter assay: 10 μL of supernatant from the assay was transferred to white 384-plate with flat bottom and squared wells. One pouch of QUANTI-Luc™ Plus was dissolved in 25 mL of water. 100 μL of QLC Stabilizer per 25 mL of QUANTI-Luc™ Plus solution was added. 50 μL of QUANTI-Luc™ Plus/QLC solution per well was then added. Luminescence was measured on a Platereader (e.g., Spectramax I3X (Molecular Devices GF3637001)).
Luciferase reporter activity was then measured. EC50 values were calculated by using standard methods known in the art.

T1 sequence (Q86WV6 whole entry R71H/G230A/H232R/R293Q): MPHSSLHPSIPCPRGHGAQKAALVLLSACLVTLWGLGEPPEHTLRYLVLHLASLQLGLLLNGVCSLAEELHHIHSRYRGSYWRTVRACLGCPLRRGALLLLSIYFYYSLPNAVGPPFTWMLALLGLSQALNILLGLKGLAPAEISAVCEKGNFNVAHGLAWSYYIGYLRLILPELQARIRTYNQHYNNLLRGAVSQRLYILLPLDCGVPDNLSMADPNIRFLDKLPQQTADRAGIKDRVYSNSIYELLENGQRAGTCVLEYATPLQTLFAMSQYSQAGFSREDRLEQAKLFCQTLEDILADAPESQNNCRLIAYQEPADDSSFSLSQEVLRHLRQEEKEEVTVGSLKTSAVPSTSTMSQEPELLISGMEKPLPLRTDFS

Row | EC50 [nM] | SMILES
1 | 200 to 1000 | CCC(=O)Nc1c[nH]c2ccc(-c3cnn(-c4ccc(C#N)cc4)c3)cc12 [Compound 101, N-(5-(1-(4-cyanophenyl)-1H-pyrazol-4-yl)-1H-indol-3-yl)propionamide]
2 | 200 to 1000 | CCC(=O)Nc1c[nH]c2ccc(-c3cnn(-c4ccc(CC(F)(F)F)cc4)c3)cc12 [Compound 102, N-(5-(1-(4-(2,2,2-trifluoroethyl)phenyl)-1H-pyrazol-4-yl)-1H-indol-3-yl)propionamide]
3 | 200 to 1000 | CCC(=O)Nc1c[nH]c2cc(F)c(-c3cnn(-c4ccc(CC)cc4)c3)cc12 [Compound 103, N-(5-(1-(4-ethylphenyl)-1H-pyrazol-4-yl)-6-fluoro-1H-indol-3-yl)propionamide]
4 | 200 to 1000 | CCC(=O)Nc1c[nH]c2ccc(-c3cnn(-c4ccc(COC)cc4)c3)cc12 [Compound 104, N-(5-(1-(4-(methoxymethyl)phenyl)-1H-pyrazol-4-yl)-1H-indol-3-yl)propionamide]
5 | 200 to 1000 | CCC(=O)Nc1c[nH]c2ccc(-c3cnn(-c4ccc(C(F)(F)F)cn4)c3)cc12 [Compound 105, N-(5-(1-(5-(trifluoromethyl)pyridin-2-yl)-1H-pyrazol-4-yl)-1H-indol-3-yl)propionamide]
6 | 40 to 200 | CCc1ccc(-n2cc(-c3ccc4[nH]cc(NC(=O)COC)c4c3)cn2)cc1 [Compound 106, N-(5-(1-(4-ethylphenyl)-1H-pyrazol-4-yl)-1H-indol-3-yl)-2-methoxyacetamide]
7 | 200 to 1000 | CCc1ccc(-n2cc(-c3ccc4[nH]cc(NC(=O)CCC#N)c4c3)cn2)cc1 [Compound 107, 3-cyano-N-(5-(1-(4-ethylphenyl)-1H-pyrazol-4-yl)-1H-indol-3-yl)propanamide]
8 | 200 to 1000 | CCc1ccc(-n2cc(-c3ccc4[nH]cc(NC(=O)C5CCN(C(=O)OC(C)(C)C)C5)c4c3)cn2)cc1 (centres unmarked) [Compound 108, tert-butyl 3-((5-(1-(4-ethylphenyl)-1H-pyrazol-4-yl)-1H-indol-3-yl)carbamoyl)pyrrolidine-1-carboxylate]
9 | 200 to 1000 | CCC(=O)Nc1c[nH]c2ccc(-c3cnn(-c4ccc(C(F)(F)F)c(C)c4)c3)cc12 [Compound 109, N-(5-(1-(3-methyl-4-(trifluoromethyl)phenyl)-1H-pyrazol-4-yl)-1H-indol-3-yl)propionamide]
10 | 40 to 200 | CCC(=O)Nc1c[nH]c2ccc(-c3cnn(-c4ccc(OCC(F)(F)F)cc4)c3)cc12 [Compound 110, N-(5-(1-(4-(2,2,2-trifluoroethoxy)phenyl)-1H-pyrazol-4-yl)-1H-indol-3-yl)propionamide]
11 | 200 to 1000 | O=C(Nc1c[nH]c2ccc(-c3cnn(-c4ccc(C(F)(F)F)cc4)c3)cc12)C1CCC1 [Compound 111, N-(5-(1-(4-(trifluoromethyl)phenyl)-1H-pyrazol-4-yl)-1H-indol-3-yl)cyclobutanecarboxamide]
12 | 200 to 1000 | CCc1ccc(-n2cc(-c3ccc4[nH]cc(NC(=O)C5COC5)c4c3)cn2)cc1 [Compound 112, N-(5-(1-(4-ethylphenyl)-1H-pyrazol-4-yl)-1H-indol-3-yl)oxetane-3-carboxamide]
13 | 40 to 200 | CCc1ccc(-n2cc(-c3ccc4[nH]cc(NC(=O)CC(C)(C)O)c4c3)cn2)cc1 [Compound 113, N-(5-(1-(4-ethylphenyl)-1H-pyrazol-4-yl)-1H-indol-3-yl)-3-hydroxy-3-methylbutanamide]
14 | 200 to 1000 | CCc1ccc(-n2cc(-c3ccc4[nH]cc(NC(=O)C(C)NC(=O)OC(C)(C)C)c4c3)cn2)cc1 (centres unmarked) [Compound 114, tert-butyl (1-((5-(1-(4-ethylphenyl)-1H-pyrazol-4-yl)-1H-indol-3-yl)amino)-1-oxopropan-2-yl)carbamate]
15 | 40 to 200 | CCc1ccc(-n2cc(-c3ccc4[nH]cc(NC(=O)C5CCCC5)c4c3)cn2)cc1 [Compound 115, N-(5-(1-(4-ethylphenyl)-1H-pyrazol-4-yl)-1H-indol-3-yl)cyclopentanecarboxamide]
16 | 5000 to 100000 | CCC(=O)Nc1c[nH]c2ccc(-c3ccnn3-c3ccc(C(F)(F)F)cc3)cc12 [Compound 116, N-(5-(1-(4-(trifluoromethyl)phenyl)-1H-pyrazol-5-yl)-1H-indol-3-yl)propionamide]
17 | 1000 to 5000 | CCC(=O)Nc1c[nH]c2ccc(-c3ccn(-c4ccc(C(F)(F)F)cc4)n3)cc12 [Compound 117, N-(5-(1-(4-(trifluoromethyl)phenyl)-1H-pyrazol-3-yl)-1H-indol-3-yl)propionamide]
18 | 1000 to 5000 | CCC(=O)Nc1c[nH]c2ccc(-c3ccc(-c4cnn(C(C)C)c4)cc3)cc12 [Compound 118, N-(5-(4-(1-isopropyl-1H-pyrazol-4-yl)phenyl)-1H-indol-3-yl)propionamide]

Row | EC50 [nM] | SMILES
19 | 200 to 1000 | CCC(=O)Nc1c[nH]c2ccc(-c3cnn(-c4ccc(Cl)cc4)c3)cc12 [Compound 119, N-(5-(1-(4-chlorophenyl)-1H-pyrazol-4-yl)-1H-indol-3-yl)propionamide]
20 | 1000 to 5000 | CCC(=O)Nc1c[nH]c2ccc(-c3cnn(-c4ccc(CC)nc4)c3)cc12 [Compound 120, N-(5-(1-(6-ethylpyridin-3-yl)-1H-pyrazol-4-yl)-1H-indol-3-yl)propionamide]
21 | 200 to 1000 | CCc1ccc(-n2cc(-c3ccc4[nH]cc(NC(=O)C5CC(=O)N5)c4c3)cn2)cc1 (centres unmarked) [Compound 121, N-(5-(1-(4-ethylphenyl)-1H-pyrazol-4-yl)-1H-indol-3-yl)-4-oxoazetidine-2-carboxamide]
22 | 200 to 1000 | CCc1ccc(-n2cc(-c3ccc4[nH]cc(NC(=O)C5CCCO5)c4c3)cn2)cc1 (centres unmarked) [Compound 122, N-(5-(1-(4-ethylphenyl)-1H-pyrazol-4-yl)-1H-indol-3-yl)tetrahydrofuran-2-carboxamide]
23 | 40 to 200 | CCc1ccc(-n2cc(-c3ccc4[nH]cc(NC(=O)C5CCCCC5)c4c3)cn2)cc1 [Compound 123, N-(5-(1-(4-ethylphenyl)-1H-pyrazol-4-yl)-1H-indol-3-yl)cyclohexanecarboxamide]
24 | 40 to 200 | CCc1ccc(-n2cc(-c3ccc4[nH]cc(NC(=O)C5CCC5)c4c3)cn2)cc1 [Compound 124, N-(5-(1-(4-ethylphenyl)-1H-pyrazol-4-yl)-1H-indol-3-yl)cyclobutanecarboxamide]
25 | 5000 to 100000 | CCc1ccc(-n2cc(-c3ccc4[nH]cc(NC(=O)CN(C)C)c4c3)cn2)cc1 [Compound 125, 2-(dimethylamino)-N-(5-(1-(4-ethylphenyl)-1H-pyrazol-4-yl)-1H-indol-3-yl)acetamide]
26 | 200 to 1000 | CCc1ccc(-n2cc(-c3ccc4[nH]cc(NC(=O)CO)c4c3)cn2)cc1 [Compound 126, N-(5-(1-(4-ethylphenyl)-1H-pyrazol-4-yl)-1H-indol-3-yl)-2-hydroxyacetamide]
27 | 200 to 1000 | CCC(=O)Nc1c[nH]c2ccc(-c3cnn(Cc4cccc(C(F)(F)F)c4)c3)cc12 [Compound 127, N-(5-(1-(3-(trifluoromethyl)benzyl)-1H-pyrazol-4-yl)-1H-indol-3-yl)propionamide]
28 | 200 to 1000 | CCC(=O)Nc1c[nH]c2ccc(-c3cnn(-c4cccc(CC)c4)c3)cc12 [Compound 128, N-(5-(1-(3-ethylphenyl)-1H-pyrazol-4-yl)-1H-indol-3-yl)propionamide]
29 | 5000 to 100000 | CCc1ccc(-n2cc(-c3ccc4[nH]cc(NC(=O)C5CN(C)C5)c4c3)cn2)cc1 [Compound 129, N-(5-(1-(4-ethylphenyl)-1H-pyrazol-4-yl)-1H-indol-3-yl)-1-methylazetidine-3-carboxamide]
30 | 200 to 1000 | CCc1ccc(-n2cc(-c3ccc4[nH]cc(NC(=O)/C=C/COC)c4c3)cn2)cc1 [Compound 130, (E)-N-(5-(1-(4-ethylphenyl)-1H-pyrazol-4-yl)-1H-indol-3-yl)-4-methoxybut-2-enamide]
31 | 5000 to 100000 | CCC(=O)Nc1c[nH]c2ccc(N3CCN(c4ccccc4)CC3)cc12 [Compound 131, N-(5-(4-phenylpiperazin-1-yl)-1H-indol-3-yl)propionamide]
32 | 200 to 1000 | CCc1ccc(-n2cc(-c3ccc4[nH]cc(NC(=O)C(C)O)c4c3)cn2)cc1 (centres unmarked) [Compound 132, N-(5-(1-(4-ethylphenyl)-1H-pyrazol-4-yl)-1H-indol-3-yl)-2-hydroxypropanamide]
33 | 40 to 200 | CCc1ccc(-n2cc(-c3ccc4[nH]cc(NC(=O)C(C)C)c4c3)cn2)cc1 [Compound 133, N-(5-(1-(4-ethylphenyl)-1H-pyrazol-4-yl)-1H-indol-3-yl)isobutyramide]
34 | 40 to 200 | CCc1ccc(-n2cc(-c3ccc4[nH]cc(NC(C)=O)c4c3)cn2)cc1 [Compound 134, N-(5-(1-(4-ethylphenyl)-1H-pyrazol-4-yl)-1H-indol-3-yl)acetamide]
35 | 5000 to 100000 | CCC(=O)Nc1c[nH]c2ccc(-c3ccc(CN4CCOCC4)s3)cc12 [Compound 135, N-(5-(5-(morpholinomethyl)thiophen-2-yl)-1H-indol-3-yl)propionamide]
